Measurements: patent US20240033234A1, “THERAPEUTIC COMPOUNDS, FORMULATIONS, AND USE THEREOF” (Tvardi Therapeutics, Inc., priority 2022, published 2024)
Values joined by “and” are separate entries in the source; they are usually repeats but may differ in a detail not shown here. Equal entries are not always repeated.

Assay: 3-Month stability data for TTI-101 Batches B, C, D and E stored at 40° C./75% RH
Type: physicochemical
Method: Exemplary HPLC conditions: diluent was 0.1% trifluoroacetic acid (TFA) in acetonitrile, Mobile Phase A was 0.05% TFA in water, and Mobile Phase B was 0.05% TFA in acetonitrile, column (Agilent, Eclipse XDB-C18, 3.0×100 mm, particle size 1.8 μm), flow (0.425 mL/min), and detector (280 nm diode array).
Batches B, C, and D were prepared according to Method 5, Method 4, and Method 3, respectively, as described in Example 1. Batch E was prepared analogously using according to Method 1 as described in Example 1.
Samples of TTI-101 (Batches B, C, D, and E) were stored at 40° C./75% RH for 3 months. The batches were individually stored in an low density polyethylene (LDPE) bag enclosed with a Nylon cable tie and then transferred to another LDPE bag and enclosed with a Nylon cable tie. The enclosure was put into a high density polyethylene (HDPE) bottle and closed with a polyethylene-lined polypropylene cap. For Batch B only, another sample was enclosed in a screw-top amber glass bottle and closed with a cap. The samples were stored under the above-identified conditions.

For `COc1ccc(S(=O)(=O)Nc2cc(-c3c(O)ccc4ccccc34)c(O)c3ccccc23)cc1` [Batch B (LDPE storage)], the “Impurities Total, Area %” value (0 M) was 0.2 Area %, the “Impurity RRT 0.39, Area %” value (0 M) was 0.06 Area % and the “Impurity RRT 0.49, Area %” value (0 M) was “NQ (≥0.02% and <0.05%)”. For the same molecule, the “Impurity RRT 0.54, Area %” value (0 M) was “NQ (≥0.02% and <0.05%)”, the “Impurity RRT 0.99, Area %” value (0 M) was “NQ (≥0.02% and <0.05%)” and the “Impurity RRT 1.16 (Cmp 6), Area %” value (0 M) was 0.12 Area %. The “Impurities Total, Area %” value (1 M) was 0.1 Area % and 0.3 Area %, the “Impurity RRT 0.80, Area %” value (1 M) was “NQ (≥0.02% and <0.05%)” and the “Impurity RRT 0.84, Area %” value (1 M) was “NQ (≥0.02% and <0.05%)”. For the same molecule, the “Impurity RRT 0.87, Area %” value (1 M) was “NQ (≥0.02% and <0.05%)”, the “Impurity RRT 0.99, Area %” value (1 M) was “NQ (≥0.02% and <0.05%)” and the “Impurity RRT 1.02, Area %” value (1 M) was 0.05 Area %. The “Impurity RRT 1.05, Area %” value (1 M) was “NQ (≥0.02% and <0.05%)”, the “Impurity RRT 1.06 (Cmp 4), Area %” value (1 M) was “NQ (≥0.02% and <0.05%)” and the “Impurity RRT 1.17 (Cmp 6), Area %” value (1 M) was 0.24 Area %. The “Impurity RRT 1.39, Area %” value (1 M) was “NQ (≥0.02% and <0.05%)”, the “Impurities Total, Area %” value (2 M) was 0.6 Area % and the “Impurity RRT 0.39, Area %” value (2 M) was “NQ (≥0.02% and <0.05%)”. For the same molecule, the “Impurity RRT 0.51, Area %” value (2 M) was 0.06 Area %, the “Impurity RRT 0.80, Area %” value (2 M) was “NQ (≥0.02% and <0.05%)” and the “Impurity RRT 0.84, Area %” value (2 M) was “NQ (≥0.02% and <0.05%)”. The “Impurity RRT 0.87, Area %” value (2 M) was “NQ (≥0.02% and <0.05%)”, the “Impurity RRT 0.99, Area %” value (2 M) was “NQ (≥0.02% and <0.05%)” and the “Impurity RRT 1.02, Area %” value (2 M) was 0.11 Area %. The “Impurity RRT 1.05, Area %” value (2 M) was “NQ (≥0.02% and <0.05%)”, the “Impurity RRT 1.06 (Cmp 4), Area %” value (2 M) was “NQ (≥0.02% and <0.05%)” and the “Impurity RRT 1.17 (Cmp 6), Area %” value (2 M) was 0.32 Area %. For the same molecule, the “Impurity RRT 1.39, Area %” value (2 M) was 0.10 Area % and 0.1 Area %, the “Impurities Total, Area %” value (3 M) was 3.2 Area % and the “Impurity RRT 0.40, Area %” value (3 M) was “NQ (≥0.02% and <0.05%)”. The “Impurity RRT 0.85, Area %” value (3 M) was “NQ (≥0.02% and <0.05%)”, the “Impurity RRT 0.88, Area %” value (3 M) was “NQ (≥0.02% and <0.05%)” and the “Impurity RRT 0.98, Area %” value (3 M) was “NQ (≥0.02% and <0.05%)”. The “Impurity RRT 1.02, Area %” value (3 M) was 0.13 Area %, the “Impurity RRT 1.05, Area %” value (3 M) was “NQ (≥0.02% and <0.05%)” and the “Impurity RRT 1.06 (Cmp 4), Area %” value (3 M) was “NQ (≥0.02% and <0.05%)”. For the same molecule, the “Impurity RRT 1.13, Area %” value (3 M) was “NQ (≥0.02% and <0.05%)”, the “Impurity RRT 1.16 (Cmp 6), Area %” value (3 M) was 2.9 Area % and the “Impurity RRT 1.38 (1.39), Area %” value (3 M) was 0.16 Area %. The Purity (%) (T = 0 month (0 M)) was 99.8% and 99.6%, the Purity (%) (T = 1 month (1 M)) was 99.5% and the Purity (%) (T = 2 months (2 M)) was 99.2%. For the same molecule, the Purity (%) (T = 3 months (3 M)) was 96.6%.

In the case of `COc1ccc(S(=O)(=O)Nc2cc(-c3c(O)ccc4ccccc34)c(O)c3ccccc23)cc1` [Batch B (glass storage)], the “Impurities Total, Area %” value (0 M) is reported as 0.2 Area %, the “Impurity RRT 0.39, Area %” value (0 M) is reported as 0.06 Area % and the “Impurity RRT 0.49, Area %” value (0 M) is reported as “NQ (≥0.02% and <0.05%)”. The “Impurity RRT 0.54, Area %” value (0 M) was “NQ (≥0.02% and <0.05%)”, the “Impurity RRT 0.99, Area %” value (0 M) was “NQ (≥0.02% and <0.05%)” and the “Impurity RRT 1.16 (Cmp 6), Area %” value (0 M) was 0.12 Area %. The “Impurities Total, Area %” value (1 M) was 0.3 Area %, the “Impurity RRT 0.80, Area %” value (1 M) was “NQ (≥0.02% and <0.05%)” and the “Impurity RRT 0.84, Area %” value (1 M) was “NQ (≥0.02% and <0.05%)”. The “Impurity RRT 0.87, Area %” value (1 M) was “NQ (≥0.02% and <0.05%)”, the “Impurity RRT 0.99, Area %” value (1 M) was 0.05 Area % and the “Impurity RRT 1.02, Area %” value (1 M) was 0.06 Area %. The “Impurity RRT 1.06 (Cmp 4), Area %” value (1 M) was “NQ (≥0.02% and <0.05%)”, the “Impurity RRT 1.17 (Cmp 6), Area %” value (1 M) was 0.23 Area % and the “Impurity RRT 1.39, Area %” value (1 M) was “NQ (≥0.02% and <0.05%)”. For the same molecule, the “Impurities Total, Area %” value (2 M) was 0.4 Area %, the “Impurity RRT 0.39, Area %” value (2 M) was “NQ (≥0.02% and <0.05%)” and the “Impurity RRT 0.80, Area %” value (2 M) was “NQ (≥0.02% and <0.05%)”. The “Impurity RRT 0.84, Area %” value (2 M) was “NQ (≥0.02% and <0.05%)”, the “Impurity RRT 0.87, Area %” value (2 M) was “NQ (≥0.02% and <0.05%)” and the “Impurity RRT 0.99, Area %” value (2 M) was “NQ (≥0.02% and <0.05%)”. The “Impurity RRT 1.02, Area %” value (2 M) was 0.10 Area %, the “Impurity RRT 1.05, Area %” value (2 M) was “NQ (≥0.02% and <0.05%)” and the “Impurity RRT 1.06 (Cmp 4), Area %” value (2 M) was “NQ (≥0.02% and <0.05%)”. The “Impurity RRT 1.17 (Cmp 6), Area %” value (2 M) was 0.323 Area % and 0.23 Area %, the “Impurity RRT 1.39, Area %” value (2 M) was 0.09 Area % and the “Impurities Total, Area %” value (3 M) was 2.9 Area %. For the same molecule, the “Impurity RRT 0.40, Area %” value (3 M) was “NQ (≥0.02% and <0.05%)”, the “Impurity RRT 0.85, Area %” value (3 M) was “NQ (≥0.02% and <0.05%)” and the “Impurity RRT 0.88, Area %” value (3 M) was “NQ (≥0.02% and <0.05%)”. For the same molecule, the “Impurity RRT 0.98, Area %” value (3 M) was “NQ (≥0.02% and <0.05%)”, the “Impurity RRT 1.02, Area %” value (3 M) was 0.13 Area % and the “Impurity RRT 1.06 (Cmp 4), Area %” value (3 M) was “NQ (≥0.02% and <0.05%)”. The “Impurity RRT 1.10, Area %” value (3 M) was “NQ (≥0.02% and <0.05%)”, the “Impurity RRT 1.13, Area %” value (3 M) was “NQ (≥0.02% and <0.05%)” and the “Impurity RRT 1.16 (Cmp 6), Area %” value (3 M) was 2.6 Area %. The “Impurity RRT 1.38 (1.39), Area %” value (3 M) was 0.14 Area %, the Purity (%) (T = 0 month (0 M)) was 99.8% and 99.6% and the Purity (%) (T = 1 month (1 M)) was 99.5%. The Purity (%) (T = 2 months (2 M)) was 99.4% and the Purity (%) (T = 3 months (3 M)) was 97.0%.
